Assay results as given in patent US7265139B2, “RXR activating molecules” (Incyte San Diego Inc., priority 2001, dated 2007).

Assays:
KKA^y mice = test: Antidiabetic activity in type 2 diabetic KKA^y mice; format: in vivo, mouse
Method: Prior to commencing treatment, all of the animals are bled from the tail vein and serum levels of glucose and triglyceride are measured in duplicate. The animals are then sorted into different treatment groups with equal average triglyceride levels. The animals are treated with a single daily oral dose of the test compound suspended in sesame oil (dose volume of 3 ml/kg).
In short, adult diabetic KKA^y mice are housed in a fixed 12—12-hr artificial light-dark cycle, and maintained on a standard rodent diet. Prior to commencing treatment, all of the animals are bled from the tail vein and serum levels of glucose and triglyceride are measured in duplicate. The animals are then sorted into different treatment groups with equal average triglyceride levels. The animals are treated with a single daily oral dose ranging from 3-30 mg/kg of the test compound suspended in sesame oil (dose volume of 3-5 ml/kg). Following one week of treatment the animals are bled from the tail vein and Serum glucose and triglycerides are measured in duplicate.
In this example, compound 1, which belongs to the novel subclass of RXR ligands is compared to a typical RXR ligand like compound 2 in the treatment of KKA^y mice.
For this study, adult diabetic KKA^y mice were housed in a fixed 12—12-hr artificial light-dark cycle, and maintained on a standard rodent diet. Prior to commencing treatment, all of the animals are bled from the tail vein and serum levels of glucose and triglyceride are measured in duplicate. The animals are then sorted into different treatment groups with equal average triglyceride levels. The animals are treated with a single daily oral dose of the test compound suspended in sesame oil (dose volume of 3 ml/kg).

[1] = test system: Mouse 3T3-L1 preadipocytes; test: 3T3-L1 adipocyte differentiation assay; format: cell-based; conditions: 0.1 μM compared to Compound 1 at equal concentration; pre-adipocytes to adipocytes
Method: Mouse 3T3-L1 cells were grown in 96-well tissue culture plates containing growing medium (DME containing 10% calf serum (CS) plus glutamine-pen-strep) at a density of 3,000 cells/well. Two days after reaching confluence, cells are treated with the different compounds in DM (Day 0). Compound 1 is included in all the experiments, and its ability to differentiate 3T3-L1 cells at 0.1 μM is taken as reference for 100% differentiation. After 7 days the lipid content of the cells was determined.
Prior to testing compounds in vivo, they can be run through the in vitro adipocyte differentiation assay based on the protocol of Zhang, et al. (1996) Negative Regulation of Peroxisome Proliferator—Activated Receptor—γGene Expression Contributes to the Antiadipogenic effects of Tumor Necrosis Factor—α. Mol. Endo. 10:1457-1456, incorporated herein by reference. In short, mouse 3T3-L1 preadipocytes are grown in culture medium containing 10% calf serum supplemented with antibiotics. Two days after reaching confluence, cells are treated with the selected compound at different concentrations dissolved in medium containing 10% fetal calf serum supplemented with antibiotics and kept at 10% CO2. The test compounds are replaced every 2-3 days. Differentiation is assessed after 7 days of treatment by the lipid content in the cells, using the Triglyceride (INFINITY) reagent (Sigma Chemical, St. Louis, Mo.).
The ability of a compound to induce preadipocytes to differentiate into adipocytes is an indicator of its antidiabetic activity. This allows for screening many compounds in a simple in vitro assay, thus avoiding the task of testing all compounds in vivo. The adipocyte differentiation assay is based on the protocol of Zhang, et al. (1996) Negative Regulation of Peroxisome Proliferator-Activated Receptor-γ Gene Expression Contributes to the Antiadipogenic effects of Tumor Necrosis Factor—α. Mol. Endo. 10:1457-1456, incorporated herein by reference at least for material related to adipocyte differentiation assays. Mouse 3T3-L1 preadipocytes are grown in culture medium containing 10% calf serum supplemented with antibiotics. Two days after reaching confluence, cells are treated with the selected compound at different concentrations dissolved in medium containing 10% fetal calf serum supplemented with antibiotics and kept at 10% CO2. The test compounds are replaced every 2-3 days. Differentiation is assessed after 7 days of treatment by the lipid content in the cells, using the Triglyceride (INFINITY) reagent (Sigma Chemical, St. Louis, Mo.) (see FIG. 15).

[2] = following one and two weeks of treatment

Cc1cc2c(cc1-c1cc(C=C3SC(=O)NC3=O)ccc1OC(F)(F)F)C(C)(C)CCC2(C)C [Compound 1]
serum glucose levels compared to vehicle treated control mice (KKA^y mice; 5 mg/kg, single daily oral dose in sesame oil, FIG. 10, p≦0.01): significant decrease | serum triglyceride levels compared to vehicle treated control mice (KKA^y mice; 5 mg/kg, single daily oral dose, FIG. 11, p≦0.05): significant decrease | Efficacious in KKAy Mice (KKA^y mice; efficacious = lowers glucose without increasing triglycerides): Yes | glucose levels compared to vehicle treated control mice (KKA^y mice; [2]): statistically significant decrease | triglyceride levels compared to vehicle treated control mice (KKA^y mice; [2]): statistically significant decrease | Differentiation Activity [1]: 100%
